According to patent publication US4699925A, “Biphenylylpropionic acid derivative and pharmaceutical composition containing the same” (priority 1982, dated 1987):
Where two headings read alike, the source gives them in different places.

What was measured:
[1] = test system: carrageenan-induced edema; assay: Inhibitory effect on carrageenan-induced edema; assay type: in vivo, Wistar male rats; conditions: Rattus norvegicus
Method: Five Wistar male rats weighing about 150 g. were used as one group. A 1% dispersion of carrageenan was injected intracutaneously into the foot pad of the right hind foot in a dose of 0.1 ml./rat. The compounds to be tested were orally administered to the rats fasted for 15 hours one hour before the carrageenan injection, or intravenously administered 2 hours […] the carrageenan injection. The volume of the foot subjected to the injection was measured by a mercury plethysmography 3 hours after the carrageenan injection on the test by oral route or 2 hours after the carrageenan injection on the test by intravenous route, and the carrageenan-induced edema was estimated from the obtained measurements.

[2] = Gastric ulceration (gastric irritation test); parameters: species or system Wistar male rats; conditions: rat, in vivo, po, read-out: UD50
Method: Five Wistar male rats weighing about 150 g. were used as one group. The rats were fasted for 24 hours before the test.
Six hours after orally administration of the present compounds to be tested, there was observed an existence of gastric ulcer by the method of Okabe et al (Ohyoyakuri, 16, 241 to 247 (1978)). The UD50 values were calculated from the ulcer incidence of gastric ulcer by the method of Litchfield-Wilcoxon.

[3] = Hydrolysis of FP derivatives in rat plasma; assay type: in vitro ADME; conditions: Table 4; rat plasma (Compound Nos. 8 to 13), 37° C., one hour; read-out: Hydrolyzing rate
Method: (§1) Each reaction mixture was incubated at 37° C. for one hour.
(§2) The free FP formed by esterase in the plasma was extracted with benzene. After treating the extract with N,O-bis(trimethylsilylacetamide) for trimethylsilylation, the obtained material was determined by gas-liquid chromatography.

Acute toxicity = assay: Acute toxicity; parameters: species or system male SLC-ddY mice; conditions: mouse, in vivo, po
[4] = Hydrolysis of FP derivatives in human plasma; assay type: in vitro ADME; conditions: 37° C., one hour, read-out: Hydrolyzing rate
Method: as §1, §2

[5] = Table 1, orally in rats, 50% ulcerative dose
[6] = Table 3, rats, orally, six hours after administration
[7] = Table 1, orally in mice, 50% lethal dose
[8] = Table 5, mice, orally, observation for 2 weeks
[9] = human, plasma, Table 1, human plasma
[10] = human, plasma, Table 4, human plasma (Compound Nos. 1 to 7)

Row | SMILES | ED50 ([1]; po, 1 h, read-out: ED50 p.o.) | ED50 ([1]; po, read-out: ED50 p.o.) | TD50 at 6 h [2, 5] | TD50 at 6 h [2, 6] | metabolised at 1 h [3] | LD50 at 336 h (Acute toxicity; [7]) | LD50 at 336 h (Acute toxicity; [8]) | ED50 ([1]; iv, 2 h, read-out: ED50 i.v.) | metabolised at 1 h [4, 9] | metabolised at 1 h [4, 10] | ED50 ([1]; po, 1 h, Table 1, rats, orally, one hour before carrageenan injection, read-out: ED50 p.o.) | ED50 ([1]; po, Table 2, rats, orally one hour before carrageenan injection, measured 3 hours after carrageenan, read-out: ED50 p.o.) | metabolised at 1 h ([4]; Table 4, human plasma (Compound Nos. 1 to 7))
1 | CCC(=O)OCCOC(=O)C(C)c1ccc(-c2ccccc2)c(F)c1 (stereo not shown) [Compound No. 9, 2-(propionyloxy)ethyl 2-(2-fluoro-4-biphenylyl)propionate] | 0.7 mg/kg | 0.7 mg/kg | 2 mg/kg | 2 mg/kg | 98.9% | 700 mg/kg | 700 mg/kg |  |  |  |  |  | 
2 | CC(C)C(=O)OCOC(=O)C(C)c1ccc(-c2ccccc2)c(F)c1 (stereo not shown) [Compound No. 3, isobutyryloxymethyl 2-(2-fluoro-4-biphenylyl)propionate] | 0.6 mg/kg | 0.6 mg/kg | 2 mg/kg | 2 mg/kg |  | 600 mg/kg | 600 mg/kg | 0.1 mg/kg | 86.3% | 86.3% |  |  | 
3 | COc1ccc2c(c1)c(CC(=O)O)c(C)n2C(=O)c1ccc(Cl)cc1 [indomethacin, reference compound] | 5.5 mg/kg | 5.5 mg/kg | 5 mg/kg | 5 mg/kg |  | 14 mg/kg | 14 mg/kg | 1.25 mg/kg |  |  |  |  | 
4 | CC(C(=O)OCOC(=O)C(C)(C)C)c1ccc(-c2ccccc2)c(F)c1 (stereo not shown) [Compound No. 7, pivaloyloxymethyl 2-(2-fluoro-4-biphenylyl)propionate] | 0.6 mg/kg | 0.6 mg/kg | 2.5 mg/kg | 2.5 mg/kg |  | 840 mg/kg | 840 mg/kg | 0.1 mg/kg | 70.3% | 70.3% |  |  | 
5 | CC=CC=CC(=O)OCCOC(=O)C(C)c1ccc(-c2ccccc2)c(F)c1 (stereo not shown) [Compound No. 12, 2-(2,4-hexadienoyloxy)ethyl 2-(2-fluoro-4-biphenylyl)propionate] | 0.9 mg/kg | 0.9 mg/kg | 3 mg/kg | 3 mg/kg | 100% | 750 mg/kg | 750 mg/kg |  |  |  |  |  | 
6 | CC(C)=CCCC(C)=CC(=O)OCCOC(=O)C(C)c1ccc(-c2ccccc2)c(F)c1 (stereo not shown) [Compound No. 13, 2-(3,7-dimethyl-2,6-octadienoyloxy)ethyl 2-(2-fluoro-4-biphenylyl)propionate] | 0.9 mg/kg | 0.9 mg/kg | 3 mg/kg | 3 mg/kg | 101% | 750 mg/kg | 750 mg/kg |  |  |  |  |  | 
7 | COc1ccc2c(c1)c(CC(=O)OCC(=O)O)c(C)n2C(=O)c1ccc(Cl)cc1 [acemethacin, reference compound] |  |  |  |  |  | 18 mg/kg | 18 mg/kg |  |  |  | 8.3 mg/kg | 8.3 mg/kg | 4.2%
8 | CCCCCCCCCCCCCCCC(=O)OCOC(=O)C(C)c1ccc(-c2ccccc2)c(F)c1 (stereo not shown) [Compound No. 6, palmitoyloxymethyl 2-(2-fluoro-4-biphenylyl)propionate] | 1.5 mg/kg | 1.5 mg/kg | 5 mg/kg | 5 mg/kg |  | 1000 mg/kg | > 1000 mg/kg | 0.5 mg/kg | 3.8% | 3.8% |  |  | 
9 | C/C=C/C(=O)OCCOC(=O)C(C)c1ccc(-c2ccccc2)c(F)c1 (stereo not shown) [Compound No. 10, 2-(crotonoyloxy)ethyl 2-(2-fluoro-4-biphenylyl)propionate] | 0.9 mg/kg | 0.9 mg/kg | 3 mg/kg | 3 mg/kg | 99.5% | 800 mg/kg | 800 mg/kg |  |  |  |  |  | 
10 | C/C=C/C(=O)OCOC(=O)C(C)c1ccc(-c2ccccc2)c(F)c1 (stereo not shown) [Compound No. 4, crotonoyloxymethyl 2-(2-fluoro-4-biphenylyl)propionate] | 0.6 mg/kg | 0.6 mg/kg | 2 mg/kg | 2 mg/kg |  | 600 mg/kg | 600 mg/kg | 0.08 mg/kg | 81.4% | 81.4% |  |  | 
11 | CC(=O)OCOC(=O)C(C)c1ccc(-c2ccccc2)c(F)c1 (stereo not shown) [Compound No. 1, acetoxymethyl 2-(2-fluoro-4-biphenylyl)propionate] | 0.5 mg/kg | 0.5 mg/kg | 3.7 mg/kg | 3.6 mg/kg |  | 880 mg/kg | 880 mg/kg | 0.08 mg/kg | 97.5% | 97.5% |  |  | 
12 | CC(C)=CC(=O)OCOC(=O)C(C)c1ccc(-c2ccccc2)c(F)c1 (stereo not shown) [Compound No. 5, 3,3-dimethylacryloyloxymethyl 2-(2-fluoro-4-biphenylyl)propionate] | 0.5 mg/kg | 0.5 mg/kg | 2 mg/kg | 2 mg/kg |  | 900 mg/kg | 900 mg/kg | 0.06 mg/kg | 64.8% | 115% |  |  | 
13 | CC(C(=O)O)c1ccc(-c2ccccc2)c(F)c1 (stereo not shown) [FP, 2-(2-fluoro-4-biphenylyl)propionic acid, reference compound] | 0.8 mg/kg | 0.8 mg/kg | 1 mg/kg | 1 mg/kg |  | 440 mg/kg | 440 mg/kg | 0.3 mg/kg |  |  |  |  | 
14 | CC(C)=CC(=O)OCCOC(=O)C(C)c1ccc(-c2ccccc2)c(F)c1 (stereo not shown) [Compound No. 11, 2-(3,3-dimethylacryloyloxy)ethyl 2-(2-fluoro-4-biphenylyl)propionate] | 1 mg/kg | 1 mg/kg | 3 mg/kg | 3 mg/kg | 99.8% | 880 mg/kg | 880 mg/kg |  |  |  |  |  | 
15 | CC(=O)OCCOC(=O)C(C)c1ccc(-c2ccccc2)c(F)c1 (stereo not shown) [Compound No. 8, 2-(acetoxy)ethyl 2-(2-fluoro-4-biphenylyl)propionate] | 0.7 mg/kg | 0.7 mg/kg | 2 mg/kg | 2 mg/kg | 101% | 650 mg/kg | 650 mg/kg |  |  |  |  |  | 
16 | CCC(=O)OCOC(=O)C(C)c1ccc(-c2ccccc2)c(F)c1 (stereo not shown) [Compound No. 2, propionyloxymethyl 2-(2-fluoro-4-biphenylyl)propionate] | 0.5 mg/kg | 0.5 mg/kg | 2.5 mg/kg | 2.5 mg/kg |  | 750 mg/kg | 750 mg/kg | 0.07 mg/kg | 94.6% | 94.6% |  |  | 
